From patent US9585846B2, “Anti-microbial composition” (Wild Child, priority 2007, dated 2017) come the findings set out here.

The subject of this test is S. aureus ATCC 6538P. The test is described as follows: Agar plate test of cream against S. aureus (colonies recovered). The class given is cell-based. The settings on record: farnesol when combined with cetrimide. The method, then: A series of plates were then prepared containing an aliquot of sample (3) prepared in accordance with the preferred formula given above. The aliquot was suspended in tryptone soy agar. 1 g of the cream was emulsified into 5 mL of saline. A 2 mL aliquot was removed and serially diluted using saline. 6 mL of tryptone soy broth was then added to the suspensions. They were then added to 10 ml, of molten double strength tryptone soy agar and plate poured. Once cooled the plates were inoculated with 94 cfu of S. aureus ATCC 6538P. The plates were then incubated at 32° C. for 5 days. Following the incubation the number of colonies of S. aureus isolated was then determined.

`CC(C)=CCCC(C)=CCCC(C)=CCO` [farnesol]: the “Antimicrobial effect of the combination” value was “synergistic antimicrobial effects”.
